Test [1] relates to bFGF-stimulated Erk1, Erk2, Akt and STAT3 phosphorylation. The test is described as follows: bFGF-stimulated phosphorylation of Erk1/2, Akt and STAT3 in NIH 3T3 cells. The note with it: GFB204 10 μM. It is filed as cell-based, mouse. How it is done:
FIGS. 3A and 3B show the effect of GFB204 on growth factor stimulated Erk1, Erk2, Akt, and STAT3 phosphorylation. GFB204 inhibits VEGF and PDGF stimulation of Flk-1 tyrosine phosphorylation and Erk1/Erk2 phosphorylation (FIG. 3A). NIH 3T3 cells or Flk-1/NIH 3T3 cells were treated with increasing concentrations of GFB204 for 5 minutes prior to stimulation with PDGFBB (10 ng/ml) or VEGF (50 ng/ml), respectively, for 10 minutes. The cells were then lysed and processed for SDS-PAGE Western blotting with an antibody specific for phosphotyrosine-Flk-1 or anti-phosphotyrosine for PDGFR tyrosine phosphorylation or phospho-Erk1/2. GFB204 effects on growth factor-stimulated Erk1, Erk2, Akt and STAT3 phosphorylation (FIG. 3B). NIH 3T3, Flk-1/NIH 3T3, IGF-1R/NIH 3T3 or EGFR/NIH 3T3 cells were treated with GFB204 (10 μM) prior to stimulation with PDGF (NIH 3T3) VEGF (Flk-1/NIH 3T3), EGF (EGFR/NIH 3T3), bFGF (NIH 3T3) or IGF-1 (IGF-1R/NIH 3T3). The cells were then harvested and processed for SDS-PAGE Western blotting with antibodies specific for phospho-Erk1/2, phospho-Akt and phospho-STAT3.
Growth factor-mediated stimulation of phosphorylation of Erk1/2, Akt and STAT3. […]

Test [2] has as its system adult human brain endothelial cells. In words: VEGF-dependent human brain endothelial cell migration (modified Boyden chamber). The note with it: VEGF 20 ng/ml, 18 hours, read-out: IC50 VEGF-induced endothelial cell migration. Type of test: cell-based. How it is done:
Migration of adult human brain endothelial cells was evaluated using a modified Boyden chamber assay as described in Materials and Methods. Vehicle control (FIG. 5A) or GFB204 (FIG. 5B) was added to 2% FBS-containing medium in the outer chamber, and the number of migrated cells to the VEGF-containing lower chamber was determined after an 18-hour incubation (FIG. 5C).
Human brain endothelial cell migration assay. Migration of adult human brain endothelial cells was evaluated using a modified Boyden chamber assay (BD BioCoat Matrigel Invasion Chamber) (Papadimitriou, E. et al. Biochem Biophys Res Commun, 2001, 282:306-13). The cells were plated at 4×10^4/ml onto an 8 μm pore size membrane coated with a thin layer of Matrigel basement membrane matrix. GFB204 was added to the medium in the outer chamber and the cells were cultured for 18 hours under VEGF-dependent condition in the lower chamber (VEGF 20 ng/ml). Non-invading cells were removed from the upper surface with a cotton swab. Membrane inserts were then fixed with 4% paraformaldehyde and stained with Crystal-Violet dye. The number of cells that migrated to the undersurface of the filters, was quantified by counting the cells migrated in randomly selected microscopic fields (10×). Samples were analyzed for significant differences using a Student's t-test for independent samples.

These results are taken from patent publication US7718700B2, “Growth factor-binding compounds and methods of use” (Yale University, priority 2004, dated 2010).

Take `CCCCOc1c2cc(C(=O)Nc3cc(C(=O)O)cc(C(=O)OCc4ccccc4)c3)cc1Cc1cc(C(=O)Nc3cc(C(=O)O)cc(C(=O)OCc4ccccc4)c3)cc(c1OCCCC)Cc1cc(C(=O)Nc3cc(C(=O)O)cc(C(=O)OCc4ccccc4)c3)cc(c1OCCCC)Cc1cc(C(=O)Nc3cc(C(=O)O)cc(C(=O)OCc4ccccc4)c3)cc(c1OCCCC)C2` [GFB204]: the “bFGF-stimulation of the phosphorylation of Erk1, Erk2, Akt and STAT3” value in test [1] is “had little effect and not”. Also, the IC50 in test [2] stood at 600 nM.
